row,SMILES,melting point
1,Cc1c(C(F)(F)F)cnn(-c2cc(OCC3CO3)c(Cl)cc2F)c1=O (stereo not drawn),127 °C
2,COC(=O)c1ccc(OC)c(I)n1,175 to 178 °C
3,CC(=O)OCc1ccc(C=Cc2csc3ccccc23)s1,66 to 68 °C
4,CC(=O)NC[C@H]1CN(c2ccc(N3CCC(C#N)(Nc4ccc(C#N)cc4)CC3)c(F)c2)C(=O)O1,210 to 212 °C
5,NS(=O)(=O)c1ccccc1C(=O)OC1COC1,169 to 170 °C
6,CCc1nnc2c(N(CC)CC)nc3ccc(OC)cc3n12,135 to 138 °C
7,CCC(C)(C)C(O)(C#Cc1cccnc1)c1cncnc1 (stereo not drawn),170 to 172 °C
8,COCC(=O)NS(=O)(=O)c1cccc(-c2cccc(-c3cc(-c4ccc(C(F)(F)F)cc4)cc(C)n3)n2)c1,188 °C
9,COC(=O)C1=C(C)NC(=S)N(C(=O)OC)C1c1cccc([N+](=O)[O-])c1 (stereo not drawn),172 to 173 °C
10,O=C(O)CCNC(=O)C(Cl)(Cl)Cl,102 to 110 °C
11,O=c1[nH]c(=O)c2cc(S(=O)(=O)O)ccc2[nH]1,> 300 °C
12,CC(C)[C@H](NC(=O)OC(C)(C)C)C(=O)Nc1c(C(=O)CC(=O)Nc2nccs2)cccc1C(F)(F)F,120 °C
13,CCn1c(=O)c2c(nc(/C=C/c3ccc(OCCCCN)cc3)n2C)n(CC)c1=O,212 to 214 °C
14,CS(=O)CC(=N)c1ccccc1O (stereo not drawn),194 to 195 °C
15,CCC12CCC3C4CCC(=O)C=C4CCC3C1CCC2OC(=O)c1ccccc1 (stereo not drawn),141 to 149 °C
16,CCc1ncc(CCCOc2c(C)cc(-c3noc(C)n3)cc2C)s1,43 to 45 °C
17,NCCCc1ccc(SCCC(c2ccccc2)(c2ccccc2)c2ccccc2)cc1,73 to 75 °C
18,CCOC(=O)c1c(N)c(Cl)cn1C,48 °C
19,C/C(=C\CC1OC(=O)NC1=O)c1cccc(OCc2nc(-c3ccc(OCC(F)(F)F)cc3)oc2C)c1 (stereo not drawn),120 to 121 °C

row,SMILES,melting point
1,COC(=O)C(CC(C)([N+](=O)[O-])[N+](=O)[O-])C(=O)OC,44 °C
2,CCCCCC[C@H](CC(=O)OC(C)(C)C)C(=O)N1C(=O)OC[C@@H]1C(C)C,50 to 51 °C
3,CC(C(=O)O)c1ccc(-c2nc3ccccc3o2)cc1 (stereo not drawn),174 to 178 °C
4,CC(=Cc1c(Cl)cccc1Cl)[N+](=O)[O-],49 to 50 °C
5,CCCCCCCC(=O)CCCCCC(=O)N[C@@H](C)C(=O)OC,61 to 64 °C
6,C=CCN1C(=O)C=C(NC2c3cc4c(cc3C(c3cc(OC)c(O)c(OC)c3)C3C(=O)OCC23)OCO4)C1=O (stereo not drawn),180 to 183 °C
7,Nc1c(C(O)(C(F)(F)F)C(F)(F)F)ccc2cc(O)ccc12,160 to 161 °C
8,O=S(=O)(Nc1ccccc1COc1cccc2cccnc12)c1cccc(C(F)(F)F)c1,120 to 121 °C
9,C[Si](C)(C)C#Cc1cn(C2CC(O)C(COC(c3ccccc3)(c3ccccc3)c3ccccc3)O2)c(=O)[nH]c1=O (stereo not drawn),104 °C
10,COc1ccc(SC(=C2NCCCS2)[N+](=O)[O-])cc1,160 to 162 °C
11,C[C@@H](C(=O)O)N(C)C(=O)c1cc(C(F)(F)F)cc(N)c1N,96 °C
12,Nc1ccc(C2=NNC(=O)Cc3cc4c(cc32)OCO4)cc1,242 to 244 °C
13,O=C(O)C1=Cc2cc([N+](=O)[O-])ccc2OC1C(F)(F)F (stereo not drawn),187 to 189 °C
14,COP(=O)(NC1C(=O)N2C(C(=O)OCc3ccc([N+](=O)[O-])cc3)=C(C=CN(C)C)CSC12)OC (stereo not drawn),236 to 237 °C
15,Cc1cn(S(C)(=O)=O)c2c1C(=O)CC(c1cccs1)C2 (stereo not drawn),135 to 136 °C
16,CC1C=CC(C(=O)O)n2c(=O)n(CCC(=O)O)c(=O)n21 (stereo not drawn),184 to 186 °C
17,CC(=O)C1CCC2C3CCC4CC(O)C(Br)CC4(C)C3CCC12C (stereo not drawn),171 to 175 °C
18,O=C1C2CCCN2S(=O)(=O)N1CSc1nnnn1-c1ccccc1 (stereo not drawn),99.5 to 100 °C
19,CCOC(=O)c1sc(SC)c2c1CCc1sc(-c3ccccc3)nc1-2,153 to 154 °C

row,SMILES,melting point
1,CCCN(CCC)Cc1nc(-c2ncn3c2CN(C)C(=O)c2sccc2-3)no1,128 to 130 °C
2,COc1cc(O)cc(CN2C(=O)N(c3cnn(Cc4c(C)noc4C)c3)C(=O)C2(C)C)c1,72 to 74 °C
3,CCc1cc(N(C)C(=O)N2CCN(c3cc(C)cc(C)c3)CC2)c(OC)nc1C,86 to 87 °C
4,COc1ccc(C(=O)C2=C(c3ccccc3)c3ccc(OC)cc3CC2)cc1,107 to 108 °C
5,FC(F)(F)c1ccccc1-c1nnc(Nc2cccc(SCc3ccccc3-c3ccccc3)c2)s1,73 to 75 °C
6,CN1CCC23c4c5ccc(OCCCN)c4OC2C(O)C=CC3C1C5 (stereo not drawn),132 to 134 °C
7,CC12CC=CCC1CCC1C2CCC2(C)C(C(N)=O)CCC12 (stereo not drawn),199 to 202 °C
8,O=C1NC(=O)C(N2C(=O)c3ccccc3C2=O)CC1c1ccccc1 (stereo not drawn),228 to 231 °C
9,CC(C)(C)OC(=O)NCCC(=O)NCCC(=O)OCc1ccccc1,84 to 85 °C
10,CCc1[nH]c(=O)[nH]c1C(=O)c1cccnc1,219 to 221 °C
11,CC(=O)Oc1c(C)c(C)c2c(c1C)CCC(C)(COc1ccc(N)cc1)O2 (stereo not drawn),138 to 140 °C
12,CCCCC(CC)C(=O)C=P(c1ccccc1)(c1ccccc1)c1ccccc1 (stereo not drawn),106 to 108 °C
13,CN(C(=O)Nc1ccc2ccccc2c1)c1cccc(-c2ccc(CC3SC(=O)NC3=O)cc2)c1 (stereo not drawn),196 °C
14,COC(=O)COc1ccc(C(=O)NNC(=O)c2ccc(C(=N)SC)cc2)cc1,208 to 210 °C
15,COc1ccc(C2=NN(c3ccccc3)C(c3ccc(N)cc3)C2)cc1 (stereo not drawn),164 to 166 °C
16,CC[C@H](C)[C@H](OCc1ccccc1)[C@H]1[C@H]([N+](=O)[O-])[C@H](c2ccccc2)N[C@@H]1C(=O)NCC(=O)O,156 to 157 °C
17,COc1cc2c(cc1OC)C(C(=O)Nc1c(C(C)C)cccc1C(C)C)SCC2 (stereo not drawn),72 to 74 °C
18,CC(Cl)CCC(=O)c1ccccc1 (stereo not drawn),28 to 30 °C

# Further lines, results first:
row,melting point,SMILES
1,132 °C,CC(C)(CSc1ccc(Cl)cc1)C(O)C(Oc1ccc(Cl)cc1)n1cncn1 (stereo not drawn)
2,94 to 95 °C,CCOC(=O)c1ccc2c(N)cccc2c1
3,174 to 176 °C,Cn1cnc(CNC(=O)c2ccnc(N3CCN(Cc4ccc(F)cc4)C3=O)c2)c1
4,121 to 123 °C,Cc1cc(C)c(C(=O)c2ccccc2)c(OCC(O)CNC(C)C)c1C (stereo not drawn)
5,155 °C,Cc1ccc(C)c(C(=O)NCC23CC4CC(CC(Cl)(C4)C2)C3)c1
6,68 to 69 °C,CCOP(=O)(Cc1nc(Cl)cc(N2CCCC2)n1)OCC
7,139 to 141 °C,COc1ccc(C(=CC#N)c2ccc(OC)c(OC)c2)cc1NC(C)=O
8,165 to 168 °C,O=C1Nc2ccc(-c3cccc(Cl)c3)cc2C2(CCCCC2)O1
9,94 to 96 °C,CN(C)C(=O)CN1CCc2ccc([N+](=O)[O-])cc2CC1
10,171 to 172 °C,CN1CCCN(c2cc3ccccc3c(=O)[nH]2)CC1
11,165 to 166 °C,COc1cc(-c2c(Cl)c(CNC(C)(C)C)nc3sc4c(c23)CCN(C(=O)c2ccccc2)C4)ccc1OC(C)C
12,102 °C,CC(=O)CSc1nc2ccc(Cc3ccccc3)cc2[nH]1
13,218 to 220 °C,CC(C)(C)n1c(=O)[nH]c2ccccc2c1=O
14,256 °C,CC(=O)Nc1ccc(N2CCN(c3ccc(O)cc3)CC2)cc1
15,52 to 53 °C,Cc1cccc(C(=O)Cc2ccccc2)c1C
16,49 to 51 °C,O=C(OCc1ccccc1)N1CCN(c2ccccc2)CC1
17,170 to 171 °C,COc1ccc2oc(=O)cc(Oc3c(Cl)cccc3Cl)c2c1
18,209 to 210 °C,CSc1nn2c(N3CCN(C)CC3)cc(C)nc2c1S(=O)(=O)c1ccccc1
19,108 to 112 °C,CCCCCS(=O)(=O)NC(=O)CCc1cc(OCCOC)nn1Cc1ccc(Cl)cc1Cl
20,207 to 209 °C,O=C(O)c1cccc(NC(=O)C(CS)Cc2noc3ccccc23)c1 (stereo not drawn)
21,89 to 91 °C,O=C=NCCC12CCCn3c1c(c1ccccc13)CCO2 (stereo not drawn)

row,melting point,SMILES
1,118 °C,CCN(CC)c1nc2cc(C)nn2c2ccncc12
2,121 to 122 °C,Clc1ccc(-n2c(Cn3ccnc3)nc3ccccc32)cc1
3,285 to 288 °C,CCN1CCN(Cc2ccc(CCn3cnc4cc(-c5ccc(Cl)cc5)sc4c3=O)cc2)C(=O)C1=O
4,124 °C,COC=C(C(=O)OC)C1(c2ccc(OC)cc2)CC=C2C=CC=C2O1 (stereo not drawn)
5,208 to 210 °C,CC(C)(C)OC(=O)CN1CC(c2ccc3ccccc3c2)SCC(N2C(=O)c3ccccc3C2=O)C1=O (stereo not drawn)
6,61 °C,O=S(=O)(Cl)c1ccc(Oc2ccc(Cl)cc2)cc1
7,207 to 210 °C,NS(=O)(=O)c1ccc(CCN2CCC(N3CCc4ccccc43)CC2)cc1
8,66 to 67 °C,CCCC[C@H](NC(=O)[C@H](CC(C)C)NC(=O)COc1ccc(Cl)cc1)C(=O)CSCc1ccco1
9,122 to 125 °C,CCCc1nc2c(N)nc3cc(OCCN4CCOCC4)ccc3c2s1
10,231 to 233 °C,O=c1[nH]c2c(cc1-c1nc(-c3ccccc3)no1)CN(Cc1ccccc1)CC2
11,106 °C,CC(C)CCOc1ccc(S(=O)(=O)C2(C(=O)NO)CCN(Cc3ccccc3)CC2)cc1
12,135 to 136 °C,O=C(c1c(Cl)cccc1Cl)n1cnc(-c2ccccc2)c1
13,75 to 76 °C,CCc1onc(-c2ccccc2)c1C(=O)NCCCCl
14,136 to 137 °C,COc1cc2c(Nc3ccc(Cl)cc3F)ncnc2cc1OCCCNC(=O)OCC(C)C
15,108 to 109 °C,O=C(NCCO)c1cccc(-c2ccc3c(c2)N(c2cc(Cl)cc(Cl)c2)CC3)c1
16,143 to 147 °C,CC(C)(CN1CCCCC1)Nc1ccnc2cc(Cl)ccc12
17,114 °C,O=[N+]([O-])c1cc(C(F)(F)F)ccc1NCCCN1CCN(C(c2ccccc2)c2ccccc2)CC1
18,196 to 205 °C,O=C(c1ccccc1)c1ccc2c([N+](=O)[O-])c(O)c(O)cc2c1
19,284 to 287 °C,Cn1c2cc(C#N)ccc2c2nc3ccccc3nc21
20,168 to 170 °C,Cc1ccc(C(=O)Nc2ccc(CN3CCCC3)c(C(F)(F)F)c2)cc1-c1ccc2cnncc2c1
21,109 to 111 °C,COc1ccccc1N1CCN(CCCc2ccc(C3CCC(=O)N3)cc2)CC1 (stereo not drawn)

# From a melting point compilation (Tetko et al.; mined from patent text by program, amines drawn as free bases though some values may be those of a salt)
